The values that follow come from ChEMBL document CHEMBL1155011, “Structure-activity relationships of the cycloalkanol ethylamine scaffold: discovery of selective norepinephrine reuptake inhibitors” (J Med Chem, 2008).

Assay [1] concerns the target T1, Sodium-dependent dopamine transporter (Homo sapiens, UniProt Q01959). The assay is described as follows: Displacement of [3H]WIN-35428 from human recombinant dopamine transporter expressed in CHO cells at 1000 nM. The class given is cell-based. (In general: In a radioligand displacement assay an active substance lowers the binding of a labelled ligand.)
For assay [2], the target named is T2, Sodium-dependent serotonin transporter (Homo sapiens, UniProt P31645). The assay is described as follows: Inhibition of 5HT uptake at human SERT expressed in human JAR cells at 1000 nM. The class given is cell-based.
Target sequence in this assay (P31645 whole entry, looked up): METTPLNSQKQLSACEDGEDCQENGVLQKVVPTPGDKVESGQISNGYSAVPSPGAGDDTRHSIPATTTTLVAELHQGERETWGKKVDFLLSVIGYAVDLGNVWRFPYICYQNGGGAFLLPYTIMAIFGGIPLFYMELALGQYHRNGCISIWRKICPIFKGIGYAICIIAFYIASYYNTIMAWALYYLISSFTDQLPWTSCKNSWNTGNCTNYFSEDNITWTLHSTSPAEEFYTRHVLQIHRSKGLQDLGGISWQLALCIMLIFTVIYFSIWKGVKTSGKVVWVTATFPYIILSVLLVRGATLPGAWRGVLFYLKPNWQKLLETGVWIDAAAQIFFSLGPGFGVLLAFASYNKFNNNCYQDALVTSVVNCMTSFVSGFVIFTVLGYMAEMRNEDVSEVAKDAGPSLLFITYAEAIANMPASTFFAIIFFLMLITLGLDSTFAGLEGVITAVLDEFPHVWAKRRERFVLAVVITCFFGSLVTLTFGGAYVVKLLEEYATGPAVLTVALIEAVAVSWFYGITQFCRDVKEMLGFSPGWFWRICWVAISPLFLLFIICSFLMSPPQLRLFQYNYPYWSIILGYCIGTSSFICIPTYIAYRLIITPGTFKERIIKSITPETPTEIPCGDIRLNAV
For assay [3], the target named is T3, Sodium-dependent noradrenaline transporter (Homo sapiens, UniProt P23975).
Assay [4] addresses T3, Sodium-dependent noradrenaline transporter. The assay is described as follows: biochemical.
Assay [5] deals with T2, Sodium-dependent serotonin transporter. The format is cell-based, JAR.
Target sequence in this assay (P31645 whole entry): as the sequence (P31645 whole entry, looked up) above
The species named for assay [6] is Homo sapiens. The assay is described as follows: Selectivity ratio of IC50 for human NET over IC50 for human SERT.
Assay [7] deals with Transporter (Rattus norvegicus, UniProt Q63380).
Description: Inhibition of norepinephrine uptake at rat brain norepinephrine transporter
In assay [8] the target is T3, Sodium-dependent noradrenaline transporter. The assay is described as follows: Inhibition of norepinephrine uptake at human norepinephrine transporter expressed in MDCK-Net6 cells at 1000 nM. The class given is cell-based.
Assay [9] shares this target. The experiment in a line: Displacement of [3H]nisoxetine from human norepinephrine transporter expressed in MDCK-Net6 cells at 1000 nM. The format is cell-based.
Assay [10] has as its target T1, Sodium-dependent dopamine transporter. The experiment in a line: biochemical.
Assay [11] concerns the target Sodium-dependent serotonin transporter (Rattus norvegicus, UniProt P31652).
Description: Inhibition of 5HT uptake at rat brain SERT

SMILES strings stand for the structures.

T1 sequence (Q01959 whole entry): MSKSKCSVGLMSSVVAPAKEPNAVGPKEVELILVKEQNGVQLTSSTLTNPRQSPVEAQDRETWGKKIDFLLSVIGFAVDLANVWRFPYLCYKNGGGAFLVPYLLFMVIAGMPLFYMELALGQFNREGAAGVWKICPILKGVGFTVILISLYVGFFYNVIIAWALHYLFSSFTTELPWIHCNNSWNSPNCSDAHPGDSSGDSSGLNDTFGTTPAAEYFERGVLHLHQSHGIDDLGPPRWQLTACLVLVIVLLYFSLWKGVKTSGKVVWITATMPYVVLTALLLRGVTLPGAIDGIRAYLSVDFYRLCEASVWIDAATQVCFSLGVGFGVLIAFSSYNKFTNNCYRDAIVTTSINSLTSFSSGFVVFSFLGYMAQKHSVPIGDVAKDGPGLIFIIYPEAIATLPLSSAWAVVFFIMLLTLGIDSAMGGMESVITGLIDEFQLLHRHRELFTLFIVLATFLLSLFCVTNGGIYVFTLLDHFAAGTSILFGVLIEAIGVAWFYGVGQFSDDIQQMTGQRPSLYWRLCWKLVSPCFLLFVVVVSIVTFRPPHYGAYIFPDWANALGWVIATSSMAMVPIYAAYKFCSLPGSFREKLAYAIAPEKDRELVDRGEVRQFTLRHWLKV
Transporter, sequence (Q63380 whole entry): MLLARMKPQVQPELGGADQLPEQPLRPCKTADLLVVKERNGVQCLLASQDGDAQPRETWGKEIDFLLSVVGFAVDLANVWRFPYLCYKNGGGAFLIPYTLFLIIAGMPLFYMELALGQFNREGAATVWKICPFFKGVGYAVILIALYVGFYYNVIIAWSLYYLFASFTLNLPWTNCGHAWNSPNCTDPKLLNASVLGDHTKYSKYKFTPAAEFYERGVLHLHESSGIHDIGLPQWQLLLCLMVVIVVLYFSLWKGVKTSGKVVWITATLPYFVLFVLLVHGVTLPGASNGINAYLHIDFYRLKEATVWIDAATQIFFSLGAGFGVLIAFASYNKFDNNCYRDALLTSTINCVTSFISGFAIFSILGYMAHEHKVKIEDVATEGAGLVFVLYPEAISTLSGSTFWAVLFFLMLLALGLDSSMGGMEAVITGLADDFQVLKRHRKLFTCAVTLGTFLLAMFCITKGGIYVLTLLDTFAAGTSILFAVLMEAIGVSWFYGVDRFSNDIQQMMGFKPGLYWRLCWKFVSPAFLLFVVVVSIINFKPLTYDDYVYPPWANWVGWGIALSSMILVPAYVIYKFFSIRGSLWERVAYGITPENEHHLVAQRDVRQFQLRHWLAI
T3 sequence (P23975 whole entry): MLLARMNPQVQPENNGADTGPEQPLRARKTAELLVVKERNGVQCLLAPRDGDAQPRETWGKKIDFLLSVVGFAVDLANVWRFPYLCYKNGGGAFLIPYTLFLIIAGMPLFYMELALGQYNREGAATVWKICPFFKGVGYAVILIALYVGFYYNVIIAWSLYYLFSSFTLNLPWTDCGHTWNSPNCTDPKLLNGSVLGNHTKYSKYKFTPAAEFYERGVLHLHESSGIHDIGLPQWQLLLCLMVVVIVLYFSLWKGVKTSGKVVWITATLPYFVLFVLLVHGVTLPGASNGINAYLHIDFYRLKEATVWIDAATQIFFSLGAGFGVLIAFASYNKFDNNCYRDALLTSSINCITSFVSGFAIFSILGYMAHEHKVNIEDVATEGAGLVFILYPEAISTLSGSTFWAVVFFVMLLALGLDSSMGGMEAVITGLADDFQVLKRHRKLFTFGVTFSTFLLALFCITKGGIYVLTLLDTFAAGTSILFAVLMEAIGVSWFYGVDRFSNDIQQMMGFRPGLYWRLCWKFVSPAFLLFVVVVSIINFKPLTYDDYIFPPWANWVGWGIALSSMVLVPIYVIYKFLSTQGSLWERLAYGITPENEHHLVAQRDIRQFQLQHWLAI
Sodium-dependent serotonin transporter (Rattus norvegicus, UniProt P31652), sequence (P31652 whole entry): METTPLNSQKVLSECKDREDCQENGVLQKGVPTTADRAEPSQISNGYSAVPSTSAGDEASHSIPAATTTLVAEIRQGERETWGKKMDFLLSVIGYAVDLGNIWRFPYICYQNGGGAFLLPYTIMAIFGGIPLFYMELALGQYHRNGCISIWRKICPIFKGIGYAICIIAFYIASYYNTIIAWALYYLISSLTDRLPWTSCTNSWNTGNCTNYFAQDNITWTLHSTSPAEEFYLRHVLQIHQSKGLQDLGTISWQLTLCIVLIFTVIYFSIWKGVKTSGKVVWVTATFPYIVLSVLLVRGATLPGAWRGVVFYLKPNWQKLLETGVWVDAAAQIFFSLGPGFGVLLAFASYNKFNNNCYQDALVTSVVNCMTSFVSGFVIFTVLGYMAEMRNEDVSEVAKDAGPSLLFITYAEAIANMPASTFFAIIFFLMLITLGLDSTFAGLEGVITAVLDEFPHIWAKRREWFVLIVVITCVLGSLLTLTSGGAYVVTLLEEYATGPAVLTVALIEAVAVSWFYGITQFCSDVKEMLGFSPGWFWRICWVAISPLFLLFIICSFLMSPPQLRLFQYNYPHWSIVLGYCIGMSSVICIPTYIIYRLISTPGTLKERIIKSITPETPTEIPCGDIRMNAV

As to `COc1cccc(C(CN2CCNCC2)C2(O)CCCCC2)c1` (centres undefined), the Activity in assay [1] was 2%. This compound also displayed an inhibition in assay [2] of 8%. Besides, in assay [3], the IC50 is 0.87 µM. Also, the Ki in assay [4] turned out to be 0.745 µM.
Regarding `OC1(C(CN2CCNCC2)c2cccc(OC(F)(F)F)c2)CCCCC1` (centres undefined), the Activity in assay [1] turned out to be 13%. The inhibition in assay [2] was 3%. For the same compound, the IC50 in assay [3] worked out at 0.284 µM. In assay [4], this compound showed a Ki of 0.14 µM.
In the case of `COc1cccc(C(CN(C)C)C2(O)CCCCC2)c1` (centres undefined), the IC50 in assay [5] was found to be 0.088 µM; in assay [3], 0.208 µM; in assay [7], 0.62 µM. Besides, the Ratio IC50 in [6] was 0.42. Besides, the Activity in [1] turned out to be 9%. In [4], this compound had a Ki of 0.316 µM.
For `OC1(C(CN2CCNCC2)c2cccc(C(F)(F)F)c2)CCCCC1` (centres undefined), the Activity in assay [1] turned out to be 4%. Besides, the inhibition in assay [2] came to 13%. The same compound had an IC50 in assay [3] of 0.094 µM. For the same compound, in assay [4], affinity was put at a Ki of 0.058 µM.
In assay [5], `OC1(C(CN2CCNCC2)c2ccc(Cl)cc2)CCCCC1` (centres undefined) gave an IC50 of 1.53 µM. In addition, the Activity in [1] was 35%. Besides, the inhibition in [8] was determined as 29%. In assay [4], this compound showed a Ki of 0.717 µM.
As for `CN(C)CC(c1ccc(Cl)cc1)C1(O)CCCCC1` (centres undefined), the IC50 in [5] is 0.123 µM; in assay [3] it was 0.12 µM; in assay [7], 0.3 µM. The Ratio IC50 in [6] was determined as 1. Further, the Activity in assay [1] worked out at 23%. The Ki in assay [4] is 0.249 µM.
`CN1CCN(CC(c2ccccc2F)C2(O)CCCCC2)CC1` (centres undefined): the inhibition in [8] is 19%. The Activity in assay [9] amounted to 34%.
Regarding `CN(C)C[C@H](c1cccc(Cl)c1)C1(O)CCCCC1`, the Activity in [1] is 0%.
Regarding `OC1([C@H](CN2CCNCC2)c2cccc(Cl)c2)CCCCC1`, the IC50 in [5] came to 2.67 µM; in assay [3], 0.025 µM. The Ki in [4] was 0.017 µM; in [10] it was 0.135 µM.
Turning to `OC1(C(CN2CCNCC2)c2cccc(Cl)c2)CCCCC1` (centres undefined), the IC50 was found to be 4.96 µM in assay [5] and 0.038 µM in [3]. The Ki is 0.018 µM in [4] and 0.045 µM in assay [10].
In the case of `CN1CCN(C[C@@H](c2cccc(OC(F)(F)F)c2)C2(O)CCCCC2)CC1`, the Activity in [1] came to 5%. In assay [2], the inhibition amounted to 4%.
Consider `CN(C)C[C@@H](c1cccc(Cl)c1)C1(O)CCCCC1`, for which, in assay [1], the Activity stood at 17%.
Consider `CN1CCN(CC(c2cccc(C(F)(F)F)c2)C2(O)CCCCC2)CC1` (centres undefined), for which, in [1], the Activity was 6%. In assay [2], this compound gave an inhibition of 28%. This compound also registered an IC50 in assay [3] of 0.092 µM. The Ki in assay [4] worked out at 0.061 µM.
For `COc1cccc(C(CN2CCN(C)CC2)C2(O)CCCCC2)c1` (centres undefined) the same measures were 4%, 14%, 0.6 µM and 0.514 µM.
In assay [2], `CN1CCN(C[C@@H](c2cccc(Cl)c2)C2(O)CCCCC2)CC1` came in with an inhibition of 0%. It took 0.577 µM to reach half-maximal inhibition in assay [3] (IC50). In addition, the inhibitory constant (Ki) in assay [4] was found to be 0.187 µM; in [10], 0.235 µM.
On to `CN1CCN(CC(c2cccc(F)c2)C2(O)CCCCC2)CC1` (centres undefined), for which the Activity in assay [1] was found to be 29%. Also, in [2], the inhibition was 12%. Moreover, it took 0.24 µM to reach half-maximal inhibition in [3] (IC50). In addition, the affinity in assay [4] corresponds to a Ki of 0.364 µM.
Regarding `COc1ccc(C(CN2CCNCC2)C2(O)CCCCC2)cc1` (centres undefined), in assay [1], the Activity is 9%. The values for the inhibition in assay [8] and in [2] were 34% and 24%, respectively. This compound displayed a Ki in assay [4] of 0.519 µM.
In [8], `OC1(C(CN2CCNCC2)c2ccccc2F)CCCCC1` (centres undefined) showed an inhibition of 31%. The compound also registered an Activity in assay [9] of 38%.
With `CN(C)CC(c1cccc(Cl)c1)C1(O)CCCCC1` (centres undefined), in assay [1], the Activity is 28%. In addition, the IC50 in assay [7] was 0.16 µM.
On to `CN1CCN(CC(c2ccc(F)cc2)C2(O)CCCCC2)CC1` (centres undefined), for which the Activity in assay [1] turned out to be 0%. This compound gave an inhibition in assay [2] of 32%. This compound also yielded an IC50 in assay [3] of 1.45 µM. Moreover, the Ki in assay [4] was found to be 1.38 µM.
As for `OC1([C@@H](CN2CCNCC2)c2cccc(Cl)c2)CCCCC1`, the figures for the half-maximal inhibitory concentration (IC50) in [5] and in [3] were 6.1 µM and 0.54 µM, respectively. For the same compound, the figures for the Ki in assay [4] and in assay [10] were 0.214 µM and 0.34 µM, respectively.
For `COc1ccc(C(CN2CCN(C)CC2)C2(O)CCCCC2)cc1` (centres undefined), in assay [1], the Activity stood at 0%. Also, the results for the inhibition in assay [8] and in assay [2] were 34% and 11%, respectively.
As to `OC1(C(CN2CCNCC2)c2cccc(F)c2)CCCCC1` (centres undefined), the Activity in assay [1] worked out at 22%. The compound also displayed an inhibition in assay [2] of 12%. In assay [3], this compound returned an IC50 of 0.673 µM. Also, in assay [4], the Ki is 0.368 µM.
For the compound `CN(C)CC(c1cccc(C(F)(F)F)c1)C1(O)CCCCC1` (centres undefined), the IC50 in assay [5] worked out at 0.534 µM; in [3], 0.032 µM; in assay [7], 0.36 µM. For the same compound, the Ratio IC50 in assay [6] was 16.7. The Activity in assay [1] came to 15%. Also, in assay [4], the Ki was 0.021 µM.
In [2], `CN1CCN(C[C@H](c2cccc(Cl)c2)C2(O)CCCCC2)CC1` showed an inhibition of 9%. Besides, the IC50 in [3] turned out to be 0.029 µM. Moreover, the Ki in assay [4] was determined as 0.014 µM; in [10], 0.073 µM.
Regarding `CN1CCN(CC(c2ccc(OC(F)(F)F)cc2)C2(O)CCCCC2)CC1` (centres undefined), the figures for the IC50 in assay [5] and in assay [3] were 1.21 µM and 0.575 µM, respectively. The Activity in assay [1] turned out to be 13%. This compound had a Ki in assay [4] of 0.417 µM.
As for `OC1(C(CN2CCNCC2)c2ccc(F)cc2)CCCCC1` (centres undefined), the Activity in [1] was 22%. The compound also came in with an inhibition in [2] of 29%. Further, in [3], the IC50 was 1.5 µM. In [4], this compound registered a Ki of 1.03 µM.
With `OC1([C@@H](CN2CCNCC2)c2cccc(OC(F)(F)F)c2)CCCCC1`, the Activity in assay [1] is 15%. For the same compound, the inhibition in assay [2] amounted to 11%. In assay [3], this compound returned an IC50 of 1.29 µM. Further, the affinity in assay [4] corresponds to a Ki of 0.544 µM.
Consider `OC1([C@H](CN2CCNCC2)c2cccc(OC(F)(F)F)c2)CCCCC1`, for which, in assay [1], the Activity is 13%. Also, the inhibition in assay [2] was found to be 3%. For the same compound, the IC50 in [3] was determined as 0.14 µM. Affinity in assay [4] was put at a Ki of 0.117 µM.
As to `CN(C)CC(c1ccccc1Cl)C1(O)CCCCC1` (centres undefined), the IC50 in assay [5] came out at 0.177 µM; in [3] it was 0.205 µM; in assay [7], 0.64 µM; in assay [11] it was 0.013 µM. In assay [6], the Ratio IC50 came to 0.86. Besides, the Activity in assay [1] turned out to be 9%. In assay [4], the Ki was found to be 0.125 µM.
With `CN1CCN(CC(c2cccc(Cl)c2)C2(O)CCCCC2)CC1` (centres undefined), the IC50 in assay [5] came out at 18.8 µM; in assay [3], 0.058 µM. Further, the values for the Ki in [4] and in [10] were 0.046 µM and 0.053 µM, respectively.
In the case of `CN1CCN(CC(c2cccc(OC(F)(F)F)c2)C2(O)CCCCC2)CC1` (centres undefined), the Activity in assay [1] turned out to be 3%. In addition, the inhibition in assay [2] was 12%.
Turning to `CN1CCN(CC(c2ccc(Cl)cc2)C2(O)CCCCC2)CC1` (centres undefined), the Activity in assay [1] amounted to 26%. The figures for the inhibition in assay [8] and in assay [2] were 7% and 0%, respectively. For the same compound, the affinity in [4] corresponds to a Ki of 1.22 µM.

A word on the inhibition: it is the drop in the measured response relative to a control, in per cent. A word on the IC50: it is the point on the concentration scale where inhibition reaches its midpoint. For orientation: Ki means a measure of affinity in units of concentration, obtained from inhibition or displacement.
